Assays:
anti-c-myc antibody 9E10 = details: read-out: Affinity for anti-c-myc antibody 9E10; cited from earlier work
α-thrombin = α-thrombin (Homo sapiens, UniProt P00734); test: Amidolytic assay of CaM-DTI and CaM-DTI2 (S-2238 or S-2366); assay type: biochemical; set-up: with a certain fixed concentration of α-thrombin (˜0.3 nM); details: Ca2+ up to 5 mM
Description: Kinetics of thrombin-catalyzed hydrolysis of the chromogenic substrates S-2238 or S-2366 (Chromogenix) was followed by absorbance at 405 nm on a SpectraMax plate reader thermostated at 37° C. The concentration of the substrate was 400 μM. Inhibition assays were performed in the clotting buffer with a certain fixed concentration of α-thrombin (˜0.3 nM) such that linear progress curves were observed within at least 15 min in the absence of the inhibition. The total volume of the reaction mixture was 200 μl. […] Kinetics data from initial rate experiments were used to construct Lineweaver-Burke plot; i.e. the relationship of (substrate concentration)^−1 versus (initial velocity)^−1 which were analysed by linear regression with MicroCal Origin 6.0 program (MicroCal, Md.). The Ki values of the inhibitors were determined using the equation Ki=[I]/{(SLo/SL1)−1}, where [I] is the inhibitor concentration, SLo is the slope of the reaction in the absence of inhibitors, and SL1 is the slope of the reaction in the presence of the inhibitor.
Kinetics of thrombin-catalyzed hydrolysis of the chromogenic substrate S-2366 (Chromogenix) was followed by absorbance at 405 nm on a SpectraMax plate reader at 25° C. The concentration of the substrate S-2366 was 50 μM. Inhibition assays were performed in the clotting buffer with a certain fixed concentration of α-thrombin (˜0.6 nM). […]

EQKLISEEDL [c-myc sequence]
Kd (anti-c-myc antibody 9E10): ~0.5 µM

Ile-Arg-Phe-Thr-Asp-Gly-Glu-Gly-(CamCKK)-Asp-Phe-Glu-Glu-Ile-Pro-Glu-Glu-Tyr-Leu-Gln [CaM-DTI2]
Effect of Ca2+ on inhibition of the thrombin active site (α-thrombin): not affected
